Results as given in paper PMC9298352, “Design, Synthesis and Structural Analysis of Glucocerebrosidase Imaging Agents” (Chemistry (Weinheim an Der Bergstrasse, Germany), 2021).

How the values were obtained:
[1] = molecular target: T1, human GBA2 (from lysates of GBA2 overexpressed cells) (Homo sapiens, UniProt Q9HCG7); test: In vitro apparent IC50, fluorogenic substrate assay on GBA2 in lysates of overexpressing cells; assay type: biochemical
T1 construct: expressed in transfected cells; host or cells: HEK293T
T1 sequence (Q9HCG7 1-927): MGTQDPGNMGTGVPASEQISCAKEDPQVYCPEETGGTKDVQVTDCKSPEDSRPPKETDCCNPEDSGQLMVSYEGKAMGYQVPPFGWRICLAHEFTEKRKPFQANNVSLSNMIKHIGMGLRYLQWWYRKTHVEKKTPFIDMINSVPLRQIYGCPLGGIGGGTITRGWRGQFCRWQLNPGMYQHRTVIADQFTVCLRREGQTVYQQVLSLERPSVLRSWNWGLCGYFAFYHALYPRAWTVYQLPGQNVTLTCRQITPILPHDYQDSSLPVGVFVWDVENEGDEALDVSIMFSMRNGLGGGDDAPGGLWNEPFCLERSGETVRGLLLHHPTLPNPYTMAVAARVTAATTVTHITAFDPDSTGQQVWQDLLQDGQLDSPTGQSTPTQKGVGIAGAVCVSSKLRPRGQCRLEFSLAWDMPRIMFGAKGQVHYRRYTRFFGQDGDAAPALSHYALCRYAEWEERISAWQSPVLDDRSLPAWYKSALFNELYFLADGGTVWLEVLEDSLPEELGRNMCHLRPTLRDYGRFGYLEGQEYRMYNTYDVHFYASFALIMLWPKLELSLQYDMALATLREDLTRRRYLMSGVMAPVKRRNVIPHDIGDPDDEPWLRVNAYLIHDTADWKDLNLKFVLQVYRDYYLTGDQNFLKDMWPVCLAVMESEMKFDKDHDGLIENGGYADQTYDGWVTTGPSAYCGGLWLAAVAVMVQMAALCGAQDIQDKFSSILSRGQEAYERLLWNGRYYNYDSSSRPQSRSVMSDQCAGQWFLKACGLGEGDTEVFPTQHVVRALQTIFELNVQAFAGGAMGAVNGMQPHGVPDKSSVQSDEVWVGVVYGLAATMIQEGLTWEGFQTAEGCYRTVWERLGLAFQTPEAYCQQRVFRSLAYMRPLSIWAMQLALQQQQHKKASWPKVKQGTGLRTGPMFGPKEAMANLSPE
Description: All assays were performed in duplicate sets, each with 3 technical replicates at each inhibitor concentration. DMSO concentration was kept at 0.5 %–1 % (v/v) in all assays during incubation with compounds. In vitro apparent IC50 values were calculated by fitting data with [inhibitor] vs. response‐various slope (four parameters) function using Graphpad Prism 7.0 software. Average values and standard deviations were calculated from the two sets.

[2] = molecular target: T2, endogenous GBA in HEK293T cells (Homo sapiens, UniProt P04062); test: In situ labeling of GBA in living HEK293T cells (gel-based ABPP); assay type: cell-based; conditions: 1–1000 nM, 24 h, 37 °C
T2 construct: endogenous in cells; host or cells: HEK293T
T2 sequence (P04062 40-536): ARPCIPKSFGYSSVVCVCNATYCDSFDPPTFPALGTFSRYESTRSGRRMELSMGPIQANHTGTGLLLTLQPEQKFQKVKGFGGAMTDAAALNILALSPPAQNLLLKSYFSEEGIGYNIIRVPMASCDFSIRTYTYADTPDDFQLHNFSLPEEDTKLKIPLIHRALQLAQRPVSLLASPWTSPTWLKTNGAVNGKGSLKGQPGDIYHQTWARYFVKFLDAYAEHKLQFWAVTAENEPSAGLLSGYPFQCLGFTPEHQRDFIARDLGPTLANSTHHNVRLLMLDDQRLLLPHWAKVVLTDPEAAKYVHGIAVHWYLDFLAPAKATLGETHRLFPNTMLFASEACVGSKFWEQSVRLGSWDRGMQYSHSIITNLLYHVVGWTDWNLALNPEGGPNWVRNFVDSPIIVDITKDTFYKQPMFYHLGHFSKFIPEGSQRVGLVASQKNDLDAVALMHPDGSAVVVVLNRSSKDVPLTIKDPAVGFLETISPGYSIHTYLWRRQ
Description: (§1) HEK293T cells containing endogenous GBA and overexpressed GBA2 were treated with the ABPs at different concentrations (1–1000 nM) for 24 hr. Cells were then washed, lysed and the fluorescence was visualized by gel‐based ABPP (Figure 8).
(§2) CBB, Coomassie Brilliant Blue staining (bottom panel).
(§3) Labelling of HEK293T cells, containing endogenous GBA and overexpressed GBA2, with ABPs 6, 8 and 9 was conducted based on previously described methods[69] as outlined in the Supporting Information (page 7).
(§4) Cy5 tetrazine 20 (2.83 mg, 4.3 µmol) was added to a solution of norbornene 19 (0.94 mg, 2.38 µmol) in MeOH (4 mL). After stirring overnight at rt, the reaction mixture was concentrated in vacuo and purified by HPLC under neutral conditions (A: 50 mM NH4HCO3 in H2O; B: MeCN; 49% → 52%, A in […]
(§5) Biochemical Methods: General Experimental Details
(§6) Recombinant human GBA (rhGBA, imiglucerase, Cerezyme®) and GAA (rhGAA, alglucosidase alfa, Myozyme) were obtained from Sanofi Genzyme (Cambridge, MA, USA). HEK293T (CRL-3216) cell lines were purchased from ATCC (Manassas, VA, USA). Cell lines were […]
(§7) (1 picture or pasted object on this page, not shown here)

[3] = molecular target: T3, overexpressed GBA2 in HEK293T cells (Homo sapiens, UniProt Q9HCG7); test: In situ labeling of GBA2 in living HEK293T cells (gel-based ABPP); assay type: cell-based; conditions: HEK293T cells overexpressing GBA2, 1–1000 nM, 24 h, 37 °C
T3 construct: expressed in transfected cells; host or cells: HEK293T
T3 sequence (Q9HCG7 1-927): T1 sequence (Q9HCG7 1-927)
Description: as §1, §2, §3, §4, §5, §6, §7

## CCCCCCCCN1[C@@H]2[C@H](Cn3cc(CNC(=O)CCCCC[N+]4=C(/C=C/C=C/C=C5/N(C)c6ccccc6C5(C)C)C(C)(C)c5ccccc54)nn3)[C@@H](O)[C@H](O)[C@@H](O)[C@@H]21 (stereo partly drawn) [ABP 6]
[1]
  IC50: > 100 µM
[2]
  ABP concentration at which in situ labeling of GBA is observed: 10 nM
[3]
  ABP concentration at which in situ labeling of GBA2 is observed: 100 nM
